Reference: PubChem BioAssay (NCI)
Where “and” joins values, the source holds several entries; their conditions need not be identical. Equal entries are not always repeated.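 Results reflect a 48-hour exposure of cells in 96-well plates to compound at five concentrations. The concentration for 50% growth inhibition is given as GI50. Definition used: TGI = concentration required for complete inhibition of growth.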

How the values were obtained:
Assay in all cases: NCI tumour cell line growth inhibition, 48 h
[1] = tested on: A498 renal
[2] = tested on: HT29 colon
[3] = tested on: SK-MEL-28 melanoma
[4] = tested on: MDA-N
[5] = tested on: LOX IMVI melanoma
[6] = tested on: RXF-631 renal
[7] = tested on: UO-31 renal
[8] = tested on: SW-620 colon
[9] = tested on: HCC-2998 colon
[10] = tested on: OVCAR-3 ovarian
[11] = tested on: A549 NSCLC
[12] = tested on: MALME-3M melanoma
[13] = tested on: SF-539 CNS
[14] = tested on: MDA-MB-435
[15] = tested on: UACC-62 melanoma
[16] = tested on: RXF 393 renal
[17] = tested on: HOP-62 NSCLC
[18] = tested on: UACC-257 melanoma
[19] = tested on: SN12C renal
[20] = tested on: KM12 colon
[21] = tested on: LXFL 529 NSCLC
[22] = tested on: 786-0 renal
[23] = tested on: COLO 205 colon
[24] = tested on: OVCAR-5 ovarian
[25] = tested on: HOP-18 NSCLC
[26] = tested on: NCI/ADR-RES ovarian
[27] = tested on: HCT-15 colon
[28] = tested on: HS 578T breast
[29] = tested on: XF 498 CNS
[30] = tested on: SNB-75 CNS
[31] = tested on: NCI-H23 lung
[32] = tested on: K-562 leukemia
[33] = tested on: ACHN renal
[34] = tested on: NCI-H460 lung
[35] = tested on: U251 CNS
[36] = tested on: MOLT-4 leukemia
[37] = tested on: T-47D breast
[38] = tested on: SK-MEL-2 melanoma
[39] = tested on: RPMI-8226 leukemia
[40] = tested on: HCT-116 colon
[41] = tested on: NCI-H522 lung
[42] = tested on: HOP-92 NSCLC
[43] = tested on: DMS 114 small cell lung
[44] = tested on: MDA-MB-231 breast
[45] = tested on: CCRF-CEM leukemia
[46] = tested on: SK-MEL-5 melanoma
[47] = tested on: HL-60(TB) leukemia
[48] = tested on: SR leukemia
[49] = tested on: CAKI-1 renal
[50] = tested on: SNB-78 CNS
[51] = tested on: SNB-19 CNS
[52] = tested on: OVCAR-4 ovarian

CN1C(=O)CC2(C)c3cc(O)ccc3N(C)C12 (stereo not drawn)
GI50 [1]: > 75 µM | TGI [1]: > 75 µM and 68.2 µM | GI50 [2]: 21.4 µM | TGI [2]: 64.5 µM and 51 µM | GI50 [3]: 11.8 µM | TGI [3]: 21.9 µM and > 79.2 µM | GI50 [4]: 12.9 µM | TGI [4]: 25.7 µM and 31.7 µM | GI50 [5]: 14.8 µM | TGI [5]: 38.9 µM and 32.6 µM | TGI [6]: > 100 µM | TGI [7]: > 90.9 µM | GI50 [8]: 13.9 µM | TGI [8]: 28.9 µM and 42.6 µM | GI50 [9]: > 75 µM | TGI [9]: > 100 µM | GI50 [10]: 16.1 µM | TGI [10]: 32 µM and 30.9 µM | TGI [11]: 75 µM and > 100 µM | GI50 [12]: > 75 µM | TGI [12]: > 75 µM and 93.5 µM | GI50 [13]: 14.5 µM | TGI [13]: 26.9 µM and > 76.5 µM | GI50 [14]: 9.51 µM | TGI [14]: 19.7 µM and 28.4 µM | TGI [15]: 38.6 µM and 45.5 µM | GI50 [16]: 48.4 µM | TGI [16]: 75 µM and 66.5 µM | TGI [17]: 60.7 µM | TGI [18]: > 85.9 µM | TGI [19]: 29.6 µM and 23.3 µM | GI50 [20]: 42.6 µM | TGI [20]: 75 µM and 42.7 µM | TGI [21]: > 59.2 µM | GI50 [22]: 23.8 µM | TGI [22]: 58.1 µM and 28.6 µM | GI50 [23]: 24.1 µM | TGI [23]: 75 µM and 63.1 µM | TGI [24]: 59.6 µM | TGI [25]: > 100 µM | GI50 [26]: 17.2 µM | TGI [26]: 75 µM and 34.3 µM | GI50 [27]: 14.3 µM | TGI [27]: 25.9 µM and 41.9 µM | GI50 [28]: 23.7 µM | TGI [28]: 69.3 µM and > 90.2 µM | TGI [29]: 33 µM | GI50 [30]: > 75 µM | TGI [30]: > 75 µM and 68.3 µM | GI50 [31]: 25.7 µM | TGI [31]: 75 µM and 61.9 µM | GI50 [32]: 11.6 µM | TGI [32]: 31.3 µM and 70.8 µM | GI50 [33]: 25.6 µM | TGI [33]: 75 µM and > 100 µM | GI50 [34]: 13.9 µM | TGI [34]: 26 µM and > 82.3 µM | GI50 [35]: 14.4 µM | TGI [35]: 25 µM and 31.2 µM | TGI [36]: 44.7 µM and 40.1 µM | GI50 [37]: > 75 µM | TGI [37]: > 91.2 µM | GI50 [38]: > 75 µM | TGI [38]: > 94.3 µM | GI50 [39]: 20.3 µM | TGI [39]: 64.8 µM and 67.3 µM | GI50 [40]: 22.8 µM | TGI [40]: 51.8 µM and 42.1 µM | GI50 [41]: 15.6 µM | TGI [41]: 33.2 µM and 60 µM | GI50 [42]: 18.4 µM | TGI [42]: 57.9 µM and > 95.9 µM | TGI [43]: > 100 µM | TGI [44]: 40.6 µM and 34.1 µM | GI50 [45]: 9.66 µM | TGI [45]: 40.8 µM and 62.7 µM | GI50 [46]: 54.1 µM | TGI [46]: 75 µM and 50.5 µM | GI50 [47]: 14.2 µM | TGI [47]: 31.5 µM and 70 µM | GI50 [48]: 13.9 µM | TGI [48]: 45.2 µM and 51.5 µM | GI50 [49]: 32.4 µM | TGI [49]: 63.5 µM and > 100 µM | TGI [50]: > 100 µM | GI50 [51]: > 75 µM | TGI [51]: > 75 µM and 68.1 µM | TGI [52]: 10.6 µM
